Here are results for 31 compounds from patent US9518000B2, “Bicyclo [2.2.1] acid GPR120 modulators” (BRISTOL-MYERS SQUIBB COMPANY, priority 2013, dated 2016).

human GPR120, sequence (Q5NUL3 whole entry): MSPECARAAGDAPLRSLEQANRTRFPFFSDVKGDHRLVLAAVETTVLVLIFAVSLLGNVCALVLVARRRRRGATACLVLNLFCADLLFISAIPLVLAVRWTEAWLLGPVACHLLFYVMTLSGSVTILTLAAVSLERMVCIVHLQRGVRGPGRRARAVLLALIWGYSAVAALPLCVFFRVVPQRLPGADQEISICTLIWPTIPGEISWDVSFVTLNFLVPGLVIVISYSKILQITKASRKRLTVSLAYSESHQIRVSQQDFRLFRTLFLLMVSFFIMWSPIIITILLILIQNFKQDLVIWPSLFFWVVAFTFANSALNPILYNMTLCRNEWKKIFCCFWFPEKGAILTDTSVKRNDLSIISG

The assay addresses human GPR120 (Homo sapiens (Human), UniProt Q5NUL3). In words: GPR120 pERK AlphaScreen SureFire Assay (human GPR120 pERK assay). The format is cell-based. Conditions: CHOA12 or CHO-K1 cells stably transfected with the short form of human GPR120 receptor; phosphorylated ERK; read-out: EC50 values measured in the human GPR120 pERK assay. An excerpt:
GPR120 activity was monitored by measuring phosphorylation of ERK (pERK), since G protein receptors are known to activate the ERK signaling cascade either directly and/or through recruitment of arrestin that serves as a scaffold for downstream signaling events.
GPR120 pERK AlphaScreen SureFire Assay
The human and mouse GPR120-mediated intracellular phosphorylated ERK assays were established using CHOA12 cells stably transfected with the short form of human or mouse GPR120 receptor. Cells were cultured in growth medium consisting of F-12 media (Invitrogen Cat. #11765) with 5% Charcoal/Dextran FBS (Invitrogen Cat. #12676-029), 500 μg/mL GENETICIN® (Life Technologies Cat. #10131-027) and 250 μg/mL Zeocin (Invitrogen Cat. #R250-01). Cells were cryo preserved at a concentration of 2×10^7 cells/mL, in 90% Charcoal/Dextran FBS and 10% DMSO, and frozen in liquid nitrogen at a low passage number.
For the pERK assay, 2×10^7 cells/mL cryopreserved human and mouse cells were thawed rapidly in a 37° C. water bath and added to a T-225 flask containing 50 mL growth medium. The flasks were placed in a tissue culture incubator overnight (37° C., 5% CO2). The next day, cells were harvested with trypsin (Gibco Cat. #25300-054), resuspended in serum-containing growth medium and counted using a Cellometer and volume adjusted to a concentration of 0.6×10^6 cells/mL. Cells were plated into 384-well clear bottom tissue culture plates (BD Cat. #353962) at 50 μL/well, for a density of 30,000 cells/well using a MULTIDROP® and incubated for 16-18 hours (overnight) at 37° C. with 5% CO2. The next day, cells were serum starved in 30 μL of F-12 media without any serum or antibiotics for 2 hours at 37° C.
Test compounds were 3-fold, 11-point serially diluted in DMSO in a REMP assay plate (Matrix Cat. #4307) by Tecan and 5 μL was transferred into an ECHO source plate (LabCyte Cat. #LC-0200). Cells were then stimulated with 50 nL of compound dilutions using ECHO liquid handler for 7 minutes at 37° C. Compounds ranged from final assay concentrations of 33.33 μM to 0.56 nM.
The media was then dumped and cells lysed with 20 μL of 1× Lysis buffer from the AlphaScreen SureFire Phospho-ERK 1/2 Kit (Perkin Elmer Cat. #6760617M). The lysis buffer was diluted 5-fold with water before use. The plate was agitated on a shaker for 10 minutes after which 2 μL was transferred into a 384-well white proxiplate (Perkin Elmer Cat. #6008289). The SureFire assay reagent mix was prepared by mixing 60 parts Reaction Buffer, 10 parts Activation Buffer, 1 part Donor Beads, 1 part Acceptor Beads (Perkin Elmer Cat. #TGRES10K). 3.5 μL/well of this reagent mix was manually added to the proxiplate with a multichannel pipettor. Plates were spun down at 1000 rpm for 2 minutes, followed by light-protected incubation at room temperature for 2 hours. The plates were read on the Alpha-technology compatible Envision multilabel plate reader using AlphaScreen protocol according to manufacturer's specifications. The agonist effect of compounds was expressed as 100×(average sample-average blank)/(average total−average blank) where sample is the luminescence activity in the presence of test compound, blank is equal to the luminescence activity in the presence of DMSO control and the total is signal induced by 50 μM linolenic acid as reference compound. Activation data for the test compound over a range of concentrations was plotted as percentage activation of the test compound (100%=maximum response). After correcting for background, EC50 values were determined. The EC50 is defined as the concentration of test compound which produces 50% of the maximal response and was quantified using the 4 parameter logistic equation to fit the data.
The human and mouse GPR120-mediated intracellular phosphorylated ERK assays were also established using CHO-K1 cells stably transfected with the short form of human or mouse GPR120 receptor. […]
(In general: In Alpha technology, singlet oxygen from a donor bead excites a nearby acceptor bead.)
Take `Cc1cc(COC23CCC(CCCC(=O)O)(CC2)C3)ccc1F` [Example 13, 4-(4-(4-fluoro-3-methylbenzyl-oxy)bicyclo [2.2.1]heptan-1-yl)butanoic acid]: the EC50 (as a rule, the concentration at which the effect is half-maximal) was determined as 7670 nM. Then `O=C(O)CCOC12CCC(OCc3cc(F)cc(Oc4ccccc4)c3)(CC1)C2` [Example 79, 3-(4-(3-Fluoro-5-phenoxybenzyloxy)bicyclo[2.2.1]heptan-1-yloxy)propanoic acid], with 270 nM. Then `O=C(O)CCCC12CCC(OCc3cccc(C(F)(F)F)c3F)(CC1)C2` [Example 46, 4-(4-(2-fluoro-3-(trifluoromethyl)benzyloxy)bicyclo[2.2.1]heptan-1-yl) butanoic acid], with 290 nM; and `O=C(O)CCCC12CCC(OCc3cccc(C(F)(F)F)c3)(CC1)C2` [Example 65, 4-(4-(3-(trifluoro-methyl)benzyloxy)bicyclo[2.2.1]heptan-1-yl) butanoic acid], with 1270 nM; and `Cc1ccc(COC23CCC(CCCC(=O)O)(CC2)C3)cc1F` [Example 12, 4-(4-(3-fluoro-4-methylbenzyl-oxy)bicyclo [2.2.1]heptan-1-yl)butanoic acid], with 6720 nM. In the case of `O=C(O)C1CC1CC12CCC(OCc3cccc(Oc4ccccc4)c3)(CC1)C2` (stereo not shown) [Example 95, 2-((4-((3-Phenoxybenzyl)oxy)bicyclo[2.2.1]heptan-1-yl)methyl)cyclopropanecarboxylic acid] it was 510 nM; in that of `O=C(O)COCC12CCC(OCc3cc(F)cc(Oc4ccc(F)cc4)c3)(CC1)C2` [Example 75, 2-((4-(3-fluoro-5-(4-fluorophenoxy)benzyloxy)bicyclo[2.2.1]heptan-1-yl)methoxy)acetic acid], 1850 nM.

Regarding `CC1(C)Cc2cc(Cl)cc(COC34CCC(CCCC(=O)O)(CC3)C4)c2O1` [Example 3, 4-(4-((5-chloro-2,2-dimethyl-2,3-dihydro-benzofuran-7-yl)methoxy)bicyclo[2.2.1]heptan-1-yl) butanoic acid], the EC50 was found to be 530 nM.

In the case of `CSc1nccc(COC23CCC(CCCC(=O)O)(CC2)C3)n1` [Example 67, 4-(4-((2-(methylthio)pyrimidin-4-yl)methoxy)bicyclo[2.2.1]heptan-1-yl) butanoic acid], the EC50 came out at 4960 nM. As for `Cc1cc(COC23CCC(CCCC(=O)O)(CC2)C3)cc(OC(F)(F)F)c1` [Example 7, 4-(4-(3-methyl-5-(trifluorometh-oxy)benzyloxy)bicyclo[2.2.1]heptan-1-yl) butanoic acid], the half-maximal effective concentration (EC50) came out at 230 nM. Consider `COc1ccc(F)c(COC23CCC(CCCC(=O)O)(CC2)C3)c1` [Example 2, 4-(4-(2-fluoro-5-methoxybenzyl-oxy)bicyclo [2.2.1]heptan-1-yl)butanoic acid], for which the EC50 turned out to be 1820 nM. In the case of `O=C(O)CCCC12CCC(OCc3cccc(-c4ccccc4)c3)(CC1)C2` [Example 57, 4-(4-(biphenyl-3-ylmethoxy)bicyclo[2.2.1]heptan-1-yl) butanoic acid] it was 770 nM; in that of `O=C(O)CCCC12CCC(OCc3cc(F)cc(Oc4ccccc4)c3)(CC1)C2` [Example 34, 4-(4-(3-fluoro-5-phenoxybenzyl-oxy)bicyclo [2.2.1]heptan-1-yl)butanoic acid], 400 nM; in that of `O=C(O)CCCC12CCC(OCc3cc(Cl)ccc3OC(F)(F)F)(CC1)C2` [Example 19, 4-(4-(5-chloro-2-(trifluorometh-oxy)benzyloxy)bicyclo[2.2.1]heptan-1-yl) butanoic acid], 520 nM. Take `O=C(O)CCCC12CCC(OCc3ccc(Oc4ccccc4)cc3)(CC1)C2` [Example 58, 4-(4-(4-phenoxy-benzyloxy)bicyclo[2.2.1]heptan-1-yl) butanoic acid]: the EC50 was found to be 1720 nM. In the case of `O=C(O)CCCC12CCC(OCc3cc(Cl)cc(Cl)c3)(CC1)C2` [Example 4, 4-(4-(3,5-dichloro-benzyloxy)bicyclo[2.2.1]heptan-1-yl) butanoic acid] it was 650 nM; in that of “4-(4-(3-chloro-5- phenoxybenzyl- oxy)bicyclo [2.2.1]heptan- 1-yl)benzoic acid [Example 6]”, 450 nM; in that of `COc1cc(Cl)ccc1COC12CCC(CCCC(=O)O)(CC1)C2` [Example 40, 4-(4-(4-chloro-2-methoxybenzyl-oxy)bicyclo [2.2.1]heptan-1-yl)butanoic acid], 2300 nM.

As for `O=C(O)CCC12CCC(OCCc3cc(OC(F)(F)F)ccc3F)(CC1)C2` [Example 89, 3-((1S,4R)-4-(2-fluoro-5-(trifluoromethoxy)phenethoxy)bicyclo [2.2.1]heptan-1-yl) propanoic acid], the 50% effective concentration (EC50) stood at 2640 nM.

With `O=C(O)CCCC12CCC(OCc3cccc(F)c3F)(CC1)C2` [Example 53, 4-(4-(2,3-difluorobenzyloxy)bicyclo[2.2.1]heptan-1-yl) butanoic acid], the half-maximal effective concentration (EC50) worked out at 6120 nM. In the case of `O=C(O)[C@@H]1C[C@H]1CC12CCC(OCc3cc(F)cc(Oc4ccccc4)c3)(CC1)C2` (single isomer, unassigned) [Example 93] it was 880 nM; in that of `O=C(O)CCCC12CCC(OCc3cc(Cl)ccc3F)(CC1)C2` [Example 52, 4-(4-(5-chloro-2-fluorobenzyl-oxy)bicyclo [2.2.1]heptan-1-yl)butanoic acid], 690 nM.

Take `COc1ccc(OC(F)(F)F)cc1COC12CCC(CCCC(=O)O)(CC1)C2` [Example 29, 4-(4-(2-methoxy-5-(trifluorometh-oxy)benzyloxy)bicyclo[2.2.1]heptan-1-yl) butanoic acid]: the EC50 came out at 5070 nM. In the case of `O=C(O)CCCC12CCC(OCc3ccccc3C(F)(F)F)(CC1)C2` [Example 64, 4-(4-(2-(trifluoro-methyl)benzyloxy)bicyclo[2.2.1]heptan-1-yl) butanoic acid] it was 1510 nM. Then `O=C(O)CCCC12CCC(OCc3csc4ccc(Cl)cc34)(CC1)C2` [Example 30, 4-(4-((5-chlorobenzo[b]thiophen-3-yl)methoxy)bicyclo[2.2.1]heptan-1-yl) butanoic acid], with 850 nM. Then `OCCC12CCC(OCc3cc(F)cc(Oc4ccccc4)c3)(CC1)C2` [Example 99, 2-(4-((3-Fluoro-5-phenoxybenzyl)oxy)bicyclo[2.2.1]heptan-1-yl)ethanol], with 6360 nM; and `O=C(O)CCCC12CCC(OCc3cccc(-c4cccs4)c3)(CC1)C2` [Example 61, 4-(4-(3-(thiophen-2-yl)benzyloxy)bicyclo[2.2.1]heptan-1-yl) butanoic acid], with 750 nM. In the case of `OCC(O)CCC12CCC(OCc3cc(F)cc(Oc4ccccc4)c3)(CC1)C2` (single isomer, unassigned) [Example 96, 4-(4-((3-Fluoro-5-phenoxybenzyl)oxy)bicyclo[2.2.1]heptan-1-yl)butane-1,2-diol], the EC50 was 380 nM. In the case of `O=C(O)CCCC12CCC(OCc3c(F)ccc(F)c3Cl)(CC1)C2` [Example 56, 4-(4-(2-chloro-3,6-difluorobenzyl-oxy)bicyclo [2.2.1]heptan-1-yl)butanoic acid] it was 1880 nM; in that of `CC(C)Oc1cc(F)cc(COC23CCC(CCCC(=O)O)(CC2)C3)c1` [Example 35, 4-(4-(3-fluoro-5-isopropoxybenzyl-oxy)bicyclo [2.2.1]heptan-1-yl)butanoic acid], 440 nM. With `CC1(C)Cc2cc(Cl)cc(COC34CCC(CCC(=O)O)(CC3)C4)c2O1` [Example 71, 3-(4-((5-Chloro-2,2-dimethyl-2,3-dihydrobenzofuran-7-yl)methoxy)bicyclo[2.2.1]heptan-1-yl)propanoic acid], the concentration giving a half-maximal response (EC50) turned out to be 6640 nM.
